# Measured values as given in patent US20180106782A1, “HIGH THROUGHPUT CARDIOTOXICITY SCREENING PLATFORM” (The Board of Trustees of the Leland Stanford Junior …, priority 2016, published 2018).
# System: μpatterned hiPSC-CMs
# Assay: traction force microscopy of moving microbeads under beating μpatterned hiPSC-CMs
# Format: cell-based, human
# Protocol: We cultured single hiPSC-CMs on Matrigel micropatterns, which were transferred from printed glass coverslips onto the surface of polyacrylamide hydrogels with a stiffness of 10 kPa as previously described. (Ribeiro 2015a) In summary, Matrigel was diluted 1:10 in L15 medium (Thermo Fisher) and added to the top of elastomeric microstamps composed of polydimethylsiloxane 182 (Dow Corning) to be incubated at 3-4° C. overnight. Microstamps consisted of 2000 μm^2 rectangular features with an aspect ratio of 7:1 (length:width). We gently aspirated Matrigel after the overnight incubation, washed the stamps twice in L15 medium, aspirated L15 medium from the surface and dried it with a low stream of N2 gas. We then used microstamps to micropattern the Matrigel rectangular features on clean glass coverslips by microcontact printing. Matrigel on micropatterns was transferred to the surface of the polyacrylamide substrates during the gelation process by placing the patterned coverslip in contact with the top of the acrylamide prepolymer solution right before gelation. The aqueous prepolymer solution to be gelled was composed of acrylamide (Sigma-Aldrich)(10% w/v), bisacrylamide (Sigma-Aldrich) (0.1% w/v), ammonium persulfate (Sigma-Aldrich) (0.01% w/v) and N,N,N′,N′-tetramethylethylenediamine (Sigma-Aldrich) (0.1% v/v), HEPES (Thermo Fisher) (35 mM) and Milli-Q water. To calculate the forces generated by cells attached to polyacrylamide surfaces with traction force microscopy, green fluorescent microbeads with a diameter of 0.2 μm (Thermo Fisher) were also dispersed in the gel solution to yield a final concentration of 6.25×10^9 microbeads/mL. We gelled acrylamide on top of another coverslip functionalized with 3-(trimethoxysilyl)propyl methacrylate (Sigma-Aldrich), which binds polyacrylamide. […] Once polymerized, polyacrylamide substrates were incubated in PBS for at least 2 hours and the top coverslips were carefully removed with a razor blade. We seeded hiPSC-CMs on these polyacrylamide hydrogel substrates after washing them 3 times with PBS.
# We passaged hiPSC-CMs onto micropatterned polyacrylamide devices at a density of 1000 cells/cm^2. For this purpose, cultures of thawed cells were washed twice with PBS and incubated in 1 mL of Accutase for 8-10 min. After observing cell detachment from the bottom of the wells, we quenched Accutase with Dulbecco's modified Eagle's medium (Thermo Fisher) containing 12% fetal bovine serum and counted the concentration of cells in medium with a hemocytometer. Then, we centrifuged cells at 83 rcf for 3 min at room temperature and aspirated the supernatant to resuspend the pelleted cells in the required volume of medium (RPMI-1640 cell-culture medium with 5 μM ROCK inhibitor) for adding 150 μL of cell solution to the surface of hydrogel devices at a concentration of 1000 cells/cm^2. After 1.5 h of incubation, we added 2.5 mL of medium to the well containing hydrogel devices and added fresh medium without ROCK inhibitor after 2 days. Single beating cells on Matrigel patterns were analyzed between 5-10 days after seeding.
# We imaged the movement of beating hiPSC-CMs and the displacement of fluorescent microbeads embedded in polyacrylamide substrates with a Zeiss Axiovert 200M inverted microscope equipped with a Zeiss Axiocam MRm CCD camera. This microscope also contained an environmental chamber (PeCon) to set temperature at 37° C. Unless otherwise noted, we acquired microscopy videos while electrically pacing hiPSC-CMs with 10 ms-wide bipolar pulses of electric-field stimulation at 10-15 V with a frequency of 1 Hz (Myopacer, lonOptix).
# To induce contractile changes in hiPSC-CMs, we added drugs known to affect CM contractile machinery to the culture medium. We analyzed the mechanical output of cells after adding drugs. […]
# [1] = extracellular caffeine slowly increased up to 10 μM (FIG. 3C)
compound,measurement,setting,value
Cn1c(=O)c2c(ncn2C)n(C)c1=O [caffeine],kinetics of relaxation right after adding caffeine,[1],sudden decrease
same,mechanical output right after adding caffeine,[1],sudden increase
same,t̂ (time between peak velocity of contraction and peak velocity of relaxation),"low doses of caffeine slowly diffused through the culture media, single cell (FIG. 3B)",increase
same,magnitude of the contractions that followed and kinetics of relaxation,with increasing caffeine extracellular concentration (FIG. 3),considerably decreased
